Source: patent US20090291999A1, “Agent Exhibiting a Neurotropic, Neuromodulator, Cerebrovascular and Anti-Stroke Activity” (AKHAPKINA, Valentina Ivanovna, priority 2006, published 2009)
Marks after values point to notes of the source that are not given here.

What was measured:
[1] = Toxicity (LD30); details: in vivo
[2] = Metabolism and excretion in the organism; details: in vivo
[3] = test system: rats with hemorrhagic stroke (intracerebral post-traumatic hematoma); experiment: Hemorrhagic stroke model: burrow reflex; details: HS rats, one-time administration; 1 day after operation
Procedure: (§1) Experiments have been conducted on white outbred male rats having weights from 200 to 250 grams. The rats have been held in vivarium conditions with free access to meals and water, under the natural change of days and nights. For the purpose of generating hemorrhagic stroke (HS) in rats narcotized with chloral hydrate (400 mg/Kg) stereotaxic craniotomy was conducted and then brain tissue in the capsula interna area was destructed with a mandarin knife, and blood (0.02 to 0.03 mL) taken under a rat tongue was injected into the place of destruction. Thus, local autohemorrhagic bilateral stroke was generated in the capsula interna area (diameter 2 mm, depth 3 mm) without damaging the above-located brain formations and neocortex. Falsely operated animals and animals with HS fed with a saline were used as the control animals. […]
The Phenotropil influence was evaluated for survivability of the animals, for the neurologic deficit level on the McGrow stroke-index scale in the modification of I. V. Gannushkina (1977) and in the Rotarod test, for muscular tonus maintenance in the test of chinning up on a horizontal bar, for orientation and exploration behavior in the open-field test. […] The latent time of the first entering in a dark chamber was registered when the burrow reflex maintenance was evaluated. […]

[4] = test system: rats with hemorrhagic stroke (intracerebral post-traumatic hematoma); experiment: Hemorrhagic stroke model: survivability of animals
Procedure: as §1
The Phenotropil influence was evaluated for survivability of the animals, for the neurologic deficit level on the McGrow stroke-index scale in the modification of I. V. Gannushkina (1977) and in the Rotarod test, for muscular tonus maintenance in the test of chinning up on a horizontal bar, for orientation and exploration behavior in the open-field test. […] The latent time of the first entering in a dark chamber was registered when the burrow reflex maintenance was evaluated.

[5] = test system: rats with hemorrhagic stroke (intracerebral post-traumatic hematoma); experiment: Hemorrhagic stroke model: neurologic deficit on McGrow's scale; details: HS rats, 100 mg/Kg internally; 1 day after operation
Procedure: (§2) Experiments have been conducted on white outbred male rats having weights from 200 to 250 grams. The rats have been held in vivarium conditions with free access to meals and water, under the natural change of days and nights. For the purpose of generating hemorrhagic stroke (HS) in rats narcotized with chloral hydrate (400 mg/Kg) stereotaxic craniotomy was conducted and then brain tissue in the capsula interna area was destructed with a mandarin knife, and blood (0.02 to 0.03 mL) taken under a rat tongue was injected into the place of destruction. Thus, local autohemorrhagic bilateral stroke was generated in the capsula interna area (diameter 2 mm, depth 3 mm) without damaging the above-located brain formations and neocortex. Falsely operated animals and animals with HS fed with a saline were used as the control animals. Intragastric administration of Phenotropil at a dose of 100 mg/Kg was performed with the use of a special tube in 5 hours after the operation and then daily for 7 days at the time of the day±3 minutes.
(§3) The Phenotropil influence was evaluated for survivability of the animals, for the neurologic deficit level on the McGrow stroke-index scale in the modification of I. V. Gannushkina (1977) and in the Rotarod test, for muscular tonus maintenance in the test of chinning up on a horizontal bar, for orientation and exploration behavior in the open-field test. Study of cognitive functions was conducted on a standard unit for conditioned reflex of passive avoidance (CRPA). A test for CRPA repetition (for maintenance of a memory trail) was conducted in 24 hours after training as well as on the 3rd, 7th and 14th days after the operation. The latent time of the first entering in a dark chamber was registered when the burrow reflex maintenance was evaluated.

[6] = test system: rats with hemorrhagic stroke (intracerebral post-traumatic hematoma); experiment: Hemorrhagic stroke model: conditioned reflex of passive avoidance (CRPA); details: for Latent time of entering into a dark chamber / Number of rats which did not entered a dark chamber: HS rats, 100 mg/Kg
Procedure: as §2, §3

[7] = test system: rats with hemorrhagic stroke (intracerebral post-traumatic hematoma); experiment: Hemorrhagic stroke model: open-field orientation-and-exploratory behavior; details: for Exploration of holes / Horizontal motion activity / Total index / Vertical motion activity: HS + Phenotropil
Procedure: as §2, §3

[8] = repetition of the CRPA in 3 days
[9] = repetition of the CRPA in 7 days
[10] = repetition of the CRPA in 14 days

In the case of `NC(=O)CN1CC(c2ccccc2)CC1=O` (centres unmarked) [Phenotropil, N-carbomoyl-methyl-4-phenyl-2-pyrrolidon], the LD30 [1] is reported as 800 mg/kg, the “Metabolism in the organism” value [2] is reported as “not metabolized in the organism and goes out of it in the unchanged form” and the “Latent time of entering into a dark chamber during training in the burrow reflex” value [3] is reported as 30.6 ± 8.8. The “Effect on death of the animals” value ([4]; 100 mg/Kg once a day for 7 days, 14 days of observation) was “completely prevented death of the animals”, the “Cases in which death of animals was prevented” value ([4]; hemorrhagic stroke, 100 mg/Kg) was 100% and the “Number of animals with flabbiness, slowness of motions” value [5] was 50%. For the same compound, the “Number of animals with paresis of 1-4 limbs” value [5] was 30%, the “Number of animals with weakness of limbs” value [5] was 40* % and the “Increase of the latent time of entering the dark chamber in comparison to the HS-group” value ([6]; 100 mg/Kg one-time administration 5 hours after operation, CRPA one day after training) was 48%. The “Increase of the number of animals with maintained memory in comparison to the HS-group” value ([6]; 100 mg/Kg one-time administration 5 hours after operation, after one day) was 60%, the “Latent time of entering into a dark chamber” value ([6]; repetition of the CRPA in 24 hours after training) was 101.1 ± 24.2 s and the “Number of rats which did not entered a dark chamber” value ([6]; repetition of the CRPA in 24 hours after training, 100 mg/kg) was 40%. The “Latent time of entering into a dark chamber” value [6, 8] was 98.3 ± 18.7 s, the “Number of rats which did not entered a dark chamber” value [6, 8] was 40** % and the “Latent time of entering into a dark chamber” value [6, 9] was 75.2 ± 24.1 s. For the same compound, the “Number of rats which did not entered a dark chamber” value [6, 9] was 30** %, the “Latent time of entering into a dark chamber” value [6, 10] was 83.2 ± 26.7 s and the “Number of rats which did not entered a dark chamber” value [6, 10] was 40** %. The Exploration of holes ([7]; 1st day after operation) was 1.3 ± 0.5, the Horizontal motion activity ([7]; 1st day after operation) was 8.8 ± 3.5 and the Total index ([7]; 1st day after operation) was 14.5 ± 5.5. It also gave a Vertical motion activity ([7]; 1st day after operation) of 4.4 ± 2.1, an Exploration of holes ([7]; 3rd day after operation) of 1.9 ± 0.7 and a Horizontal motion activity ([7]; 3rd day after operation) of 15.2 ± 5.4. For the same compound, the Total index ([7]; 3rd day after operation) was 21.6 ± 6.1, the Vertical motion activity ([7]; 3rd day after operation) was 4.5 ± 1.5 and the Exploration of holes ([7]; 7th day after operation) was 4.6 ± 1.3. For the same compound, the Horizontal motion activity ([7]; 7th day after operation) was 20.9 ± 4.1, the Total index ([7]; 7th day after operation) was 36.4 ± 5.6 and the Vertical motion activity ([7]; 7th day after operation) was 10.9 ± 3.2. For the same compound, the Exploration of holes ([7]; 14th day after operation) was 3.0 ± 0.7, the Horizontal motion activity ([7]; 14th day after operation) was 12.2 ± 2.8 and the Total index ([7]; 14th day after operation) was 22.1 ± 3.5. The Vertical motion activity ([7]; 14th day after operation) was 6.9 ± 1.9 and the “Increase of total index of motion behavior compared to rats of the HS group” value ([7]; registered in 7 days) was 2.7 times.
